≈ marks a conversion by molar mass, not a printed value.
Experiments:
[1] = Cytotoxicity against African green monkey Vero cells assessed as reduction in cell viability after 72 hrs by MTT assay; assay type: cell-based; conditions: chlorocebus sabaeus
[2] = tested on: Mycobacterium tuberculosis; assay: Antimycobacterial activity against Mycobacterium tuberculosis H37Rv ATCC 27294 incubated for 5 days by microplate alamar blue assay; assay type: functional; conditions: H37Rv ATCC 27294, 120 h
[3] = Selectivity index, ratio of CC50 for African green monkey Vero cells to MIC for Mycobacterium tuberculosis H37Rv ATCC 27294; assay type: toxicity, cell-based; conditions: read-out: Selectivity Index

| SMILES | CC50 at 72 h [1] | MIC [2] | selectivity ratio [3] |
| --- | --- | --- | --- |
| Cc1c(C(=O)CSCCNC(=O)c2cccs2)[n+]([O-])c2ccccc2[n+]1[O-] | > 100 µg/mL | 6.25 µg/mL (≈ 15.5 µM) | > 16 |
| Cc1c(C(=O)CSc2nc[nH]n2)[n+]([O-])c2ccccc2[n+]1[O-] | 50 µg/mL (≈ 158 µM) | 0.39 µg/mL (≈ 1.23 µM) | 128 |
| CC(=O)NCCSCC(=O)c1c(C)[n+]([O-])c2ccccc2[n+]1[O-] |  | 50 µg/mL (≈ 149 µM) |  |
| Cc1c(C(=O)CSc2ccc(F)cc2)[n+]([O-])c2ccccc2[n+]1[O-] | 50 µg/mL (≈ 145 µM) | 0.39 µg/mL (≈ 1.13 µM) | 128 |
| Cc1c(C(=O)CN(C)C2CCCCC2)[n+]([O-])c2ccccc2[n+]1[O-] |  | 50 µg/mL (≈ 152 µM) |  |
| Cc1ccc(SCC(=O)c2c(C)[n+]([O-])c3ccccc3[n+]2[O-])cc1 | 50 µg/mL (≈ 147 µM) | 0.78 µg/mL (≈ 2.29 µM) | 64 |
| Cc1c(C(=O)CSCCNC(=O)C2CCCCC2)[n+]([O-])c2ccccc2[n+]1[O-] |  | 12.5 µg/mL (≈ 31 µM) |  |
| Cc1c(C(=O)CSc2nc3ccccc3o2)[n+]([O-])c2ccccc2[n+]1[O-] | 50 µg/mL (≈ 136 µM) | 3.13 µg/mL (≈ 8.52 µM) | 16 |
| COc1ccc(SCC(=O)c2c(C)[n+]([O-])c3ccccc3[n+]2[O-])cc1 | 50 µg/mL (≈ 140 µM) | 0.78 µg/mL (≈ 2.19 µM) | 64 |
| Cc1c(C(=O)CN(C)c2ccc(F)cc2)[n+]([O-])c2ccccc2[n+]1[O-] | > 100 µg/mL | 6.25 µg/mL (≈ 18.3 µM) | > 16 |
| Cc1c(C(=O)CSCCNC(=O)c2ccc3ccccc3c2)[n+]([O-])c2ccccc2[n+]1[O-] | > 100 µg/mL | 6.25 µg/mL (≈ 14 µM) | > 16 |
| Cc1c(C(=O)CSCCNC(=O)c2ccncc2)[n+]([O-])c2ccccc2[n+]1[O-] | 50 µg/mL (≈ 125 µM) | 6.25 µg/mL (≈ 15.7 µM) |  |
| Cc1c(C(=O)CSCCO)[n+]([O-])c2ccccc2[n+]1[O-] |  | 50 µg/mL (≈ 170 µM) |  |
| Cc1c(C(=O)CSCCN)[n+]([O-])c2ccccc2[n+]1[O-] |  | 50 µg/mL (≈ 170 µM) |  |
| Cc1c(C(=O)CNc2nc3ccccc3[nH]2)[n+]([O-])c2ccccc2[n+]1[O-] |  | 12.5 µg/mL (≈ 35.8 µM) |  |
| Cc1c(C(=O)CSc2nc3ccccc3s2)[n+]([O-])c2ccccc2[n+]1[O-] | 50 µg/mL (≈ 130 µM) | 1.56 µg/mL (≈ 4.07 µM) | 32 |
| Cc1c(C(=O)CSCCNC(=O)c2ccc(F)cc2)[n+]([O-])c2ccccc2[n+]1[O-] | > 100 µg/mL | 1.56 µg/mL (≈ 3.76 µM) | > 128 |

| SMILES | CC50 at 72 h [1] | MIC [2] | selectivity ratio [3] |
| --- | --- | --- | --- |
| Cc1c(C(=O)CSc2nccs2)[n+]([O-])c2ccccc2[n+]1[O-] | 50 µg/mL (≈ 150 µM) | 3.13 µg/mL (≈ 9.39 µM) | 16 |
| Cc1ccc(N(C)CC(=O)c2c(C)[n+]([O-])c3ccccc3[n+]2[O-])cc1 |  | 25 µg/mL (≈ 74.1 µM) |  |
| Cc1c(C(=O)CSc2ccccc2)[n+]([O-])c2ccccc2[n+]1[O-] | 50 µg/mL (≈ 153 µM) | 1.56 µg/mL (≈ 4.78 µM) | 32 |
| COc1ccc(C(=O)NCCSCC(=O)c2c(C)[n+]([O-])c3ccccc3[n+]2[O-])cc1 | > 100 µg/mL | 3.13 µg/mL (≈ 7.32 µM) | > 32 |
| CCN(CC)CC(=O)c1c(C)[n+]([O-])c2ccccc2[n+]1[O-] |  | 50 µg/mL (≈ 173 µM) |  |
| Cc1c(C(=O)CN2CCN(C)CC2)[n+]([O-])c2ccccc2[n+]1[O-] |  | 50 µg/mL (≈ 158 µM) |  |
| Cc1c(C(=O)CNc2nccs2)[n+]([O-])c2ccccc2[n+]1[O-] |  | 50 µg/mL (≈ 158 µM) |  |
| Cc1c(C(=O)CSCCNC(=O)[C@@H](N)Cc2ccc(O)cc2)[n+]([O-])c2ccccc2[n+]1[O-] |  | 25 µg/mL (≈ 54.8 µM) |  |
| Cc1c(C(=O)CN(C)c2ccccc2)[n+]([O-])c2ccccc2[n+]1[O-] |  | 25 µg/mL (≈ 77.3 µM) |  |
| Cc1c(C(=O)CSc2nc3ccccc3[nH]2)[n+]([O-])c2ccccc2[n+]1[O-] | 100 µg/mL (≈ 273 µM) | 6.25 µg/mL (≈ 17.1 µM) | 16 |
| Cc1c(C(=O)CSCCNC(=O)[C@@H](N)Cc2c[nH]c3ccccc23)[n+]([O-])c2ccccc2[n+]1[O-] | > 100 µg/mL | 6.25 µg/mL (≈ 13 µM) | > 16 |
| Cc1c(C(=O)CSCCNC(=O)c2ccccc2)[n+]([O-])c2ccccc2[n+]1[O-] | > 100 µg/mL | 6.25 µg/mL (≈ 15.7 µM) | > 16 |
| Cc1c(C(=O)CN2CCCCC2)[n+]([O-])c2ccccc2[n+]1[O-] |  | 25 µg/mL (≈ 83 µM) |  |
| Cc1c(C(=O)CSCCNC(=O)[C@@H](N)C(C)C)[n+]([O-])c2ccccc2[n+]1[O-] |  | 25 µg/mL (≈ 63.7 µM) |  |
| Cc1c(C(=O)CN(C)Cc2ccccc2)[n+]([O-])c2ccccc2[n+]1[O-] |  | 50 µg/mL (≈ 148 µM) |  |
| COc1cc(C(=O)NCCSCC(=O)c2c(C)[n+]([O-])c3ccccc3[n+]2[O-])cc(OC)c1OC |  | 25 µg/mL (≈ 51.3 µM) |  |
| NNC(=O)c1ccncc1 [ISONIAZID] |  | 0.2 µg/mL (≈ 1.46 µM) |  |

From ChEMBL document CHEMBL3826937, “Synthesis, 3D-QSAR analysis and biological evaluation of quinoxaline 1,4-di-N-oxide derivatives as antituberculosis agents” (Bioorg Med Chem Lett, 2016)
